Measured values as given in paper PMC9216541, “Design and synthesis of Nrf2-derived hydrocarbon stapled peptides for the disruption of protein-DNA-interactions” (PLoS ONE, 2022).
Where a SMILES comes first, the peptide text is derived from it. Bridges are numbered along the chain shown (N, C = ends). [ ]: non-standard residue; d: D form. The star is where a group is joined. FITC = O=C1OC2(c3ccc(O)cc3Oc3cc(O)ccc32)c2ccc(NC(=S)*)cc21; R8 = C=CCCCCCC[C@@](C)(N)C(=O)O; R5 = C=CCCC[C@@](C)(N)C(=O)O; S5 = C=CCCC[C@](C)(N)C(=O)O; GABA = NCCCC(=O)O

Experiments:
living HeLa cells = experiment: Cell permeability in living HeLa cells, fluorescence microscopy; type: cell-based
Description: (§1) HeLa cells (ATCC CCL-2) were cultured in Dulbecco’s Modified Eagle Medium (DMEM) supplemented with 10% FBS (Pan Biotech), 2 mM L-glutamine, 100 U/ml penicillin and 100 μg/ml streptomycin at 37°C and 5% CO2.
To investigate the cell permeability of peptide 4, living HeLa cells were washed twice and incubated for 5 min with DPBS + Mg/Ca, ([…]) in a CO2 incubator. Cells were subsequently incubated in the presence of 10 μM of peptide 4 in DPBS + Mg/Cl for 5 min, followed by two washes with DPBS + Mg/Cl and final addition of HEPES-buffered imaging medium containing 0.5 μM propidium iodide.
(§2) Imaging was performed using an Olympus IX81 microscope with 20x and 60x UPLSAPO objectives and standard fluorescence filter sets.

[1] = biological target: 6FAM-labeled MARE23 sequence (Nrf2:sMaf binding dsDNA); experiment: Fluorescence polarization assay with 6FAM-labeled MARE23 dsDNA; settings: FP, 10 nM 6FAM-MARE23 dsDNA, peptide 25 μM - 6.1 nM, 50 mM Tris/HCl pH 7.5, 100 mM NaCl, 60 min at room temperature; quadruplicates, three independent replicates, four parameter logistic fit
Description: For DNA hybridization, equimolar amounts of fluorescein- or 6FAM-labeled sense and unlabeled antisense oligonucleotides were mixed in 1X annealing buffer (10 mM Tris pH 7.5, 100 mM NaCl, 1 mM EDTA) to yield a final concentration of 20 μM of dsDNA. Subsequently, mixtures were heated to 95°C for 10 min followed by cooling to 20°C at a rate of 1°C per minute. Afterwards, dsDNA probes were diluted to 10 nm in FP assay buffer (50 mM Tris/HCl pH 7.5, 100 mM NaCl, 2 mM MgCl2, 0.5 mM EDTA, 10 μg/mL BSA, 0.1 mM DTT, 0.01% Tween-20) and mixed with serial dilutions of peptides 1–6 (25 μM—6.1 nm), that were generated with the Echo 520 liquid handler (Labcyte Inc.), in a total volume of 10.2 μL per well in black 384-well small volume microplates (Greiner Bio-One). The microplates were shaken at 1500 rpm for 30 s, centrifuged at 200 x g for 60 s and subsequently incubated for 60 min in a humidified, dark chamber at room temperature. Finally, the fluorescence polarization was analyzed on an Infinite® M1000 microplate reader (Tecan) using the appropriate settings for fluorescein/6FAM, i.e. an excitation wavelength of 470 ± 2.5 nm and an emission wavelength of 520 ± 7.5 nm.
Each concentration was analyzed in quadruplicates and resulting mean fluorescence polarization and standard deviation was fit to a four parameter logistic model with Origin (OriginLab, Northampton, MA) using the following equation: y=A1−A2/1+x/x0^p+A2
Each experiment was performed in three independent replicates.
Figure S5. Fluorescence polarization binding studies of stapled peptides 1-6 towards target DNA sequence MARE23 (5’-[6FAM][…]-3’ and 5’-[…]-3’) (A, C) and control DNA sequence MARE23_scrambled (5’-[6FAM][…]-3’ and 5’-GAGTAA-TAGCTATGACGATATTCCG-3’) (B and D, respectively). The obtained polarization values were either baseline-corrected (A, B) or corrected for the changes in fluorescence intensity in the free/bound state of the fluorescently labeled dsDNA probes (C, D).^[1] The resulting dissociation constants are listed in the inset tables in the respective panels. […]

[2] = CD measurements, helical fraction from ellipticity at 222 nm; type: physicochemical; settings: peptide 20 μM in water, calculated from [θ]obs at 222 nm by established methods (ref 30)
Description: CD measurements were carried out on a JASCO J-715 spectrometer using water as the solvent for all measurements. The peptides were solved in water to a concentration of 20 μM. The linear peptide 5 was used as a control compound. The helical fraction for peptides 1–5 was calculated from the observed ellipticity [θ]obs at 222 nm using established methods.

[3] = test system: dsDNA probe (MARE23, MARE23_scrambled, randomized sequence); experiment: Electrophoretic mobility shift assay; type: binding; settings: 1 pmol dsDNA probe with excess of peptide, 30 min at room temperature, native 15% TBE polyacrylamide gel
Description: DNA hybridization was performed as described above. Afterwards, 1 pmol of the dsDNA probe was incubated with the respective excess of peptide in 1X assay buffer (10 mM Tris pH 7.5, 100 mM KCl, 2 mM MgCl2, 0.5 mM EDTA, 10 μg/mL BSA, 0.1 mM DTT, 2.5% glycerol) in a final volume of 10 μL and incubated for 30 min at room temperature. Prior to gel electrophoresis, samples were mixed with 2 μL of 6X loading buffer (60 mM Tris pH 7.5, 15% Ficoll 400) and the reaction mixtures were then loaded onto hand-cast, native 15% TBE polyacrylamide gels. Separation was performed for 45 min at a current of 20 mA per gel in a cold room at 4°C and the gels were analyzed on a Typhoon FLA 9500 laser scanner (GE Healthcare) using the 473 nm laser for excitation and a 510 nm long-pass filter (LPB (510LP)) for emission of fluorescein and FAM, respectively.
[picture] Figure S6. Electrophoretic mobility shift assays of peptides 4 and 5 with MARE23 (5’-[6FAM][…]-3’ and 5’-[…]-TTCCG-3’).
Figure S7. Electrophoretic mobility shift assays of peptides 4 and 5 with MARE23_scrambled (5’-[6FAM][…]-3’ and 5’-[…]-TTCCG-3’).
Figure S8. Electrophoretic mobility shift assays of peptides 4 and 5 with DNA with a randomized sequence (5’-[6FAM][…]-3’ and 5’-GAG-[…]-3’).

[4] = biological target: peptide 2 (stapled Nrf2-derived) (UniProt Q16236); experiment: fluorescence polarization; settings: FP: 50 mM Tris/HCl pH 7.5, 100 mM NaCl, 2 mM MgCl2, 0.5 mM EDTA, 10 ug/mL BSA, 0.1 mM DTT, 0.01% Tween-20, 10 nM DNA, 60 min RT; EMSA: 10 mM Tris pH 7.5, 100 mM
[5] = biological target: peptide 1 (stapled Nrf2-derived) (UniProt Q16236); experiment: fluorescence polarization; settings: FP: 50 mM Tris/HCl pH 7.5, 100 mM NaCl, 2 mM MgCl2, 0.5 mM EDTA, 10 ug/mL BSA, 0.1 mM DTT, 0.01% Tween-20, 10 nM DNA, 60 min RT; EMSA: 10 mM Tris pH 7.5, 100 mM
[6] = biological target: peptide 4 (stapled Nrf2-derived) (UniProt Q16236); experiment: fluorescence polarization; settings: FP: 50 mM Tris/HCl pH 7.5, 100 mM NaCl, 2 mM MgCl2, 0.5 mM EDTA, 10 ug/mL BSA, 0.1 mM DTT, 0.01% Tween-20, 10 nM DNA, 60 min RT; EMSA: 10 mM Tris pH 7.5, 100 mM
peptide 6 (scrambled) = experiment: fluorescence polarization; settings: FP: 50 mM Tris/HCl pH 7.5, 100 mM NaCl, 2 mM MgCl2, 0.5 mM EDTA, 10 ug/mL BSA, 0.1 mM DTT, 0.01% Tween-20, 10 nM DNA, 60 min RT; EMSA: 10 mM Tris pH 7.5, 100 mM
[7] = biological target: peptide 3 (stapled Nrf2-derived) (UniProt Q16236); experiment: fluorescence polarization; settings: FP: 50 mM Tris/HCl pH 7.5, 100 mM NaCl, 2 mM MgCl2, 0.5 mM EDTA, 10 ug/mL BSA, 0.1 mM DTT, 0.01% Tween-20, 10 nM DNA, 60 min RT; EMSA: 10 mM Tris pH 7.5, 100 mM
[8] = biological target: peptide 5 (linear Nrf2-derived) (UniProt Q16236); experiment: fluorescence polarization; settings: FP: 50 mM Tris/HCl pH 7.5, 100 mM NaCl, 2 mM MgCl2, 0.5 mM EDTA, 10 ug/mL BSA, 0.1 mM DTT, 0.01% Tween-20, 10 nM DNA, 60 min RT; EMSA: 10 mM Tris pH 7.5, 100 mM
[9] = test system: cellular DNA in fixed, permeabilized HeLa cells; experiment: Incubation with fixed, permeabilized HeLa cells, wide-field fluorescence microscopy; type: cell-based; settings: FITC-labeled peptide
Description: as §1
For fixing and permeabilization, HeLa cells were incubated with pre-warmed 4% formaldehyde for 20 min at 37°C, followed by permeabilization with 0.25% Triton-X 100 for 20 min at room temperature. For the evaluation of the effect of proteases, cOmplete protease inhibitor mix (1X) 500 μl was added to the fixed cells for 30 min. Peptides were incubated at 1 μM for 3 h in the presence of the protease inhibitor mix, followed by 3 min incubation with 1 μM of the nucleic acid marker DAPI, then extensively washed with DPBS and subjected to wide-field imaging.
as §2

CC[C@H](C)[C@H](NC(=O)CCCNC(=S)Nc1ccc2c(c1)C(=O)OC21c2ccc(O)cc2Oc2cc(O)ccc21)C(=O)N[C@@H](CCCNC(=N)N)C(=O)N[C@@H](CCCNC(=N)N)C(=O)N[C@@H](CCCNC(=N)N)C(=O)N[C@]1(C)CCCCCCC=CCCC[C@@](C)(C(=O)N[C@@H](CC(N)=O)C(=O)N[C@@H](CS)C(=O)N[C@@H](CCCNC(=N)N)C(=O)N[C@@H](CCCCN)C(=O)N[C@@H](CCCNC(=N)N)C(=O)N[C@@H](CCCCN)C(N)=O)NC(=O)[C@H](C)NC(=O)[C@H](C)NC(=O)[C@H](C(C)C)NC(=O)[C@H](CCCCN)NC(=O)[C@H](CC(N)=O)NC(=O)[C@H](CCCCN)NC1=O [FITC-4] ({FITC-GABA}-IRRR[R8]KNKVAA[S5]NCRKRK-NH2; staple 5-12)
membrane permeability in living cells (living HeLa cells; 10 μM peptide in DPBS + Mg/Ca, 5 min, serum-free, washed, FITC fluorescence microscopy): high membrane permeability in living cells
viability / membrane integrity of peptide-containing cells (propidium iodide) (living HeLa cells; 10 μM peptide, 0.5 μM propidium iodide in imaging medium): majority of peptide-containing cells were alive

CC[C@H](C)[C@H](NC(C)=O)C(=O)N[C@@H](CCCNC(=N)N)C(=O)N[C@@H](CCCNC(=N)N)C(=O)N[C@@H](CCCNC(=N)N)C(=O)NCC(=O)N[C@@H](CCCCN)C(=O)N[C@@H](CC(N)=O)C(=O)N[C@@H](CCCCN)C(=O)N[C@]1(C)CCCC=CCCC[C@@](C)(C(=O)N[C@@H](CC(N)=O)C(=O)N[C@@H](CS)C(=O)N[C@@H](CCCNC(=N)N)C(=O)N[C@@H](CCCCN)C(=O)N[C@@H](CCCNC(=N)N)C(=O)N[C@@H](CCCCN)C(N)=O)NC(=O)[C@H](C)NC(=O)[C@H](C)NC1=O [compound 3] (Ac-IRRRGKNK[R5]AA[S5]NCRKRK-NH2; staple 9-12)
Kd [1]: 1500 ± 200 nM
Helicity (calculated) / α-helical content [2]: 36%

CC[C@H](C)[C@H](NC(C)=O)C(=O)N[C@@H](CCCNC(=N)N)C(=O)N[C@@H](CCCNC(=N)N)C(=O)N[C@@H](CCCNC(=N)N)C(=O)N[C@]1(C)CCCCCCC=CCCC[C@@](C)(C(=O)N[C@@H](CC(N)=O)C(=O)N[C@@H](CS)C(=O)N[C@@H](CCCNC(=N)N)C(=O)N[C@@H](CCCCN)C(=O)N[C@@H](CCCNC(=N)N)C(=O)N[C@@H](CCCCN)C(N)=O)NC(=O)[C@H](C)NC(=O)[C@H](C)NC(=O)[C@H](C(C)C)NC(=O)[C@H](CCCCN)NC(=O)[C@H](CC(N)=O)NC(=O)[C@H](CCCCN)NC1=O [compound 4] (Ac-IRRR[R8]KNKVAA[S5]NCRKRK-NH2; staple 5-12)
mobility shift of DNA [3]: induce a mobility shift of DNA at a lower concentration than the unstapled peptide 5
Kd [1]: 1200 ± 300 nM
Helicity (calculated) / α-helical content [2]: 18%

CGGAATCAATGACTCATTGTTACTC (double strand) [MARE23]
Kd [4]: 3900 nM
Kd [5]: 1600 nM
Kd [6]: 1200 nM
Kd (peptide 6 (scrambled)): 8100 nM
Kd [7]: 1500 nM
Kd [8]: 7900 nM

IRRRGKNKVAAQNCRKRK [FITC-5, linear peptide 5 with N-terminal FITC-GABA- label]
enrichment in the nucleus ([9]; fixed (4% formaldehyde) and permeabilized (0.25% Triton-X 100) HeLa cells, DAPI co-stain): no enrichment in the nucleus could be observed
amount of peptide detectable in cells ([9]; fixed and permeabilized HeLa cells, identical exposure times): only small amounts

IRRRS5KNKS5AAQNCRKRK (sidechain bridge or staple) [compound 1, Nrf2-derived i,i+4 hydrocarbon stapled peptide (505/509), N-terminally acetylated, C-terminal amide]
Kd [1]: 1600 ± 40 nM
Helicity (calculated) / α-helical content [2]: 20%
